# Patent US20240270821A1, “GIP/GLP1/GCG TRI-RECEPTOR AGONISTS AND USES THEREOF” (priority 2023, published 2024)
# Like-named read-outs stand apart in the source and are kept apart here. Starred links: 1 amine or outer side, 2 acyl side, 3 side chain; linkers in the order of their positions; H or OH if unused. Non-standard residues stand in square brackets, D forms with d. Residues, ends and D or L forms follow the SMILES beside them. Groups on a side chain read outwards from the residue. No end group written: not given here. *: point of attachment. C20 diacid = O=C(O)CCCCCCCCCCCCCCCCCCC(=O)*; C18 diacid = O=C(O)CCCCCCCCCCCCCCCCC(=O)*; αMePhe(2-F) = C[C@](N)(Cc1ccccc1F)C(=O)O; γGlu = O=C(O)[C@H](CCC(=O)[*:2])N[*:1]; αMe4Pal = C[C@](N)(Cc1ccncc1)C(=O)O; αMeY = C[C@](N)(Cc1ccc(O)cc1)C(=O)O; αMeF = C[C@](N)(Cc1ccccc1)C(=O)O; 4Pal = N[C@@H](Cc1ccncc1)C(=O)O; αMeL = CC(C)C[C@](C)(N)C(=O)O; αMeS = C[C@](N)(CO)C(=O)O; Orn = NCCC[C@H](N)C(=O)O; AEEA = NCCOCCOCC(=O)O; Aib = CC(C)(N)C(=O)O
# What was measured:
# Assay type in all cases: cell-based
# hGIPR [1] = target: T1, hGIPR (Homo sapiens, UniProt P48546); assay: Functional cAMP activation in the presence of 0.1% casein (no HSA);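 further: intracellular cAMP rise after 30 min at 37 °C read by HTRF against a standard curve, scaled between buffer alone (0%) and top control ligand concentration (100%), four-parameter fit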
# T1 sequence (P48546 22-466): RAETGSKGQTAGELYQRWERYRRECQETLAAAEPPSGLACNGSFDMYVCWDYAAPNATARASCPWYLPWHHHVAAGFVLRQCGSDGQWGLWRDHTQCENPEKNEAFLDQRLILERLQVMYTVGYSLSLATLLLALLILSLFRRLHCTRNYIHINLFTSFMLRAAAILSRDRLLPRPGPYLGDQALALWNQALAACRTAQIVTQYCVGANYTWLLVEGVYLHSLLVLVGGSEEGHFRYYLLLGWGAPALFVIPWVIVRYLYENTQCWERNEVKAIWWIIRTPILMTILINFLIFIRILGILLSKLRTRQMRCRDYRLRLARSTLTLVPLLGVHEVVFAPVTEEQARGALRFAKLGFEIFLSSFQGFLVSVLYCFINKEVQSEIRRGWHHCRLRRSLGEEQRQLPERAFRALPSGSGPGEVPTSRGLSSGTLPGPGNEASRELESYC
# hGLP-1R [2] = target: T2, hGLP-1R (Homo sapiens, UniProt P43220); assay: Functional cAMP activity in the presence of 1% HSA
# T2 sequence (P43220 24-463): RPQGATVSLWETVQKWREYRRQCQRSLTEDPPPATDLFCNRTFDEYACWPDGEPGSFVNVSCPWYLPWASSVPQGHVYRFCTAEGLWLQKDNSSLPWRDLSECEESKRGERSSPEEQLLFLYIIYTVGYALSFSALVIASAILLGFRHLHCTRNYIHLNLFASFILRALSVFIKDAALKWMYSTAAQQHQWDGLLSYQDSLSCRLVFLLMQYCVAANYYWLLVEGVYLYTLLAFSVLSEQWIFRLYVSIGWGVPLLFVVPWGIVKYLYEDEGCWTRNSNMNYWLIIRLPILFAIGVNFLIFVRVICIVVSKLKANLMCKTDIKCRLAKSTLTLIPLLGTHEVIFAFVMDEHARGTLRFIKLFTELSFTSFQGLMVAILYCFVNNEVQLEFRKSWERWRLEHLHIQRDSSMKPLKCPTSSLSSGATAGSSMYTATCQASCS
# hGIPR [3] = target: T1, hGIPR; assay: Functional cAMP activity in the presence of 1% HSA
# hGLP-1R [4] = target: T2, hGLP-1R; assay: Functional cAMP activation in the presence of 0.1% casein (no HSA);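 on Relative cAMP EC50, hGLP-1R: intracellular cAMP rise after 30 min at 37 °C read by HTRF, normalized between buffer only (0%) and maximal control ligand (100%), four-parameter variable-slope fit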;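 on Relative cAMP EC50, hGcgR: intracellular cAMP rise after 30 min at 37 °C, read by HTRF against a cAMP standard curve, scaled from buffer only (0%) to maximal control ligand response (100%)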
# hGcgR = hGcgR (Homo sapiens, UniProt P47871); assay: as above;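 further: intracellular cAMP rise after 30 min at 37 °C, read by HTRF against a cAMP standard curve, scaled from buffer only (0%) to maximal control ligand response (100%)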
# Chain of hGcgR (P47871 26-477): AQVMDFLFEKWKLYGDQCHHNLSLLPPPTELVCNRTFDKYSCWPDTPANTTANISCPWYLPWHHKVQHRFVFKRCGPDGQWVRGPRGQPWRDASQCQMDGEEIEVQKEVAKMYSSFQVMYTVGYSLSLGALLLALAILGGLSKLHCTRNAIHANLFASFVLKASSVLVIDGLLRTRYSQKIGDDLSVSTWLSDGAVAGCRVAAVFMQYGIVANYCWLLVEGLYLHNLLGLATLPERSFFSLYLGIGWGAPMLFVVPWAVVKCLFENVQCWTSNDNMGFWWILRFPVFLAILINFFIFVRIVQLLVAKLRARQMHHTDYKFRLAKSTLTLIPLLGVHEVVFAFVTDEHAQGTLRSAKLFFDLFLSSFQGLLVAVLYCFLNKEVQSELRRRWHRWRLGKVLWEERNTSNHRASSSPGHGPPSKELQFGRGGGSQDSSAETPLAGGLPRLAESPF
# human GcgR = human GcgR (Homo sapiens, UniProt P47871); assay: Functional cAMP activity in the presence of 1% HSA
# Chain of human GcgR (P47871 26-477): as above
# [5] = read-out: Relative cAMP EC50, hGIPR
# [6] = read-out: cAMP Rel EC50, hGLP-1R
# [7] = read-out: Relative cAMP EC50, hGLP-1R
# [8] = read-out: Relative cAMP EC50, hGcgR
# [9] = in the presence of 0.1% casein (no HSA), geometric mean, read-out: Relative cAMP EC50, hGIPR
# [10] = in the presence of 0.1% casein (no HSA), geometric mean, read-out: Relative cAMP EC50, hGLP-1R
# [11] = in the presence of 0.1% casein (no HSA), geometric mean, read-out: Relative cAMP EC50, hGcgR
Compound,EC50 (hGIPR [1]; [5]),EC50 (hGLP-1R [2]; [6]),"EC50 (hGIPR [3]; read-out: cAMP Rel EC50, hGIPR)",EC50 (hGLP-1R [4]; [7]),EC50 (hGcgR; [8]),"EC50 (human GcgR; read-out: cAMP Rel EC50, hGcgR)",EC50 (hGIPR [1]; [9]),EC50 (hGLP-1R [4]; [10]),EC50 (hGcgR; [11]),EC50 (hGIPR [1]),EC50 (hGLP-1R [2]),EC50 (hGIPR [3]),EC50 (hGLP-1R [4]),EC50 (hGcgR),EC50 (human GcgR)
CC[C@H](C)[C@H](NC(=O)[C@H](Cc1ccccc1)NC(=O)[C@H](C)NC(=O)C(C)(C)NC(=O)[C@H](CCC(N)=O)NC(=O)[C@H](C)NC(=O)[C@H](CCCCNC(=O)COCCOCCNC(=O)CC[C@H](NC(=O)CCCCCCCCCCCCCCCCC(=O)O)C(=O)O)NC(=O)[C@H](CCCCN)NC(=O)[C@H](CC(=O)O)NC(=O)[C@H](CC(C)C)NC(=O)[C@](C)(CC(C)C)NC(=O)[C@@H](NC(=O)[C@H](CO)NC(=O)[C@H](Cc1ccncc1)NC(=O)[C@H](CC(=O)O)NC(=O)[C@H](CO)NC(=O)[C@@H](NC(=O)[C@](C)(Cc1ccccc1F)NC(=O)[C@@H](NC(=O)CNC(=O)[C@H](CCC(N)=O)NC(=O)C(C)(C)NC(=O)[C@@H](N)Cc1ccc(O)cc1)[C@@H](C)O)[C@@H](C)O)[C@@H](C)CC)C(=O)N[C@@H](CCC(=O)O)C(=O)N[C@@H](Cc1ccc(O)cc1)C(=O)N[C@@H](CC(C)C)C(=O)N[C@@H](CCC(=O)O)C(=O)N[C@@H](CCC(=O)O)C(=O)NCC(=O)NCC(=O)N1CCC[C@H]1C(=O)N[C@@H](CO)C(=O)N[C@@H](CO)C(=O)NCC(=O)N[C@@H](C)C(=O)N1CCC[C@H]1C(=O)N1CCC[C@H]1C(=O)N1CCC[C@H]1C(=O)N[C@@H](CO)C(N)=O [Example 422] (H-Y[Aib]QGT[αMePhe(2-F)]TSD[4Pal]SI[αMeL]LDKK([AEEA-γGlu-C18 diacid])AQ[Aib]AFIEYLEEGGPSSGAPPPS-NH2),0.0216 nM,27.1 nM,4.4 nM,0.252 nM,14.5 nM,493 nM,,,,,,,,,
H-Y[Aib]QGTFTSD[4Pal]S[Orn][αMeL]LDKK([γGlu-γGlu-C18 diacid])AQ[Aib]AFIE[αMeY]LIEGGPSSGAPPPSGS-NH2 [Example 941],,113 nM,22.1 nM,,,1430 nM,0.183 nM,0.764 nM,11.7 nM,,,,,,
H-Y[Aib]QGT[αMePhe(2-F)]TSD[4Pal][αMeS]I[αMeL]LD[Orn]K([AEEA-γGlu-C18 diacid])AQ[Aib]NFIEYLIEGGPSSGEPPPEEG-NH2 [Example 482],0.0139 nM,14.9 nM,1.58 nM,0.177 nM,1.41 nM,325 nM,,,,,,,,,
CC[C@H](C)[C@H](NC(=O)[C@H](Cc1ccccc1)NC(=O)[C@H](C)NC(=O)C(C)(C)NC(=O)[C@H](CCC(N)=O)NC(=O)[C@H](C)NC(=O)[C@H](CCCCNC(=O)COCCOCCNC(=O)CC[C@H](NC(=O)CCCCCCCCCCCCCCCCCCC(=O)O)C(=O)O)NC(=O)[C@H](CCCCN)NC(=O)[C@H](CC(=O)O)NC(=O)[C@H](CC(C)C)NC(=O)[C@](C)(CC(C)C)NC(=O)[C@H](CCCN)NC(=O)[C@H](CO)NC(=O)[C@H](Cc1ccccc1)NC(=O)[C@H](CC(=O)O)NC(=O)[C@H](CO)NC(=O)[C@@H](NC(=O)[C@H](Cc1ccccc1)NC(=O)[C@@H](NC(=O)CNC(=O)[C@H](CCC(N)=O)NC(=O)C(C)(C)NC(=O)[C@@H](N)Cc1ccc(O)cc1)[C@@H](C)O)[C@@H](C)O)C(=O)N[C@@H](CCC(=O)O)C(=O)N[C@@H](Cc1c[nH]c2ccccc12)C(=O)N[C@@H](CC(C)C)C(=O)N[C@@H](CC(C)C)C(=O)N[C@@H](CCC(=O)O)C(=O)NCC(=O)NCC(=O)N1CCC[C@H]1C(=O)N[C@@H](CO)C(=O)N[C@@H](CO)C(=O)NCC(=O)N[C@@H](C)C(=O)N1CCC[C@H]1C(=O)N1CCC[C@H]1C(=O)N1C[C@H](O)C[C@H]1C(=O)N[C@@H](CO)C(=O)NCC(=O)N[C@@H](CCC(=O)O)C(N)=O [Example 105],,768 nM,72.5 nM,,,2790 nM,0.269 nM,2.86 nM,12.5 nM,,,,,,
Y[Aib]QGTFTSD[4Pal]S[Orn][αMeL]LD[Orn]K([γGlu-γGlu-C18 diacid])AQ[αMe4Pal]AFIEYLIAGGPSSGAPPPSGSE-NH2 [Example 1011],,148 nM,13.5 nM,,,459 nM,0.21 nM,2.13 nM,5.27 nM,,,,,,
Y[Aib]QGT[αMePhe(2-F)]TSD[4Pal][αMeS]I[αMeL]LD[Orn]K([γGlu-γGlu-C18 diacid])AQ[Aib]NFI[dE][αMeY]LQEGGPSSGEPPPEGTE-NH2 [Example 526],0.0364 nM,22.9 nM,2.12 nM,0.421 nM,8.62 nM,530 nM,,,,,,,,,
H-Y[Aib]QGTFTSDYSI[αMeL]LDKQAAK([AEEA-AEEA-γGlu-C20 diacid])QFIEWLIEGGPSSGEPPPGAE-NH2 [Example 319],,,,,,,,,,0.485 nM,119 nM,60.1 nM,0.947 nM,4.81 nM,1650 nM
Y[Aib]QGT[αMeF]TSD[4Pal][αMeS]I[αMeL]LD[Orn]K([γGlu-γGlu-C18 diacid])AQ[αMe4Pal]EFI[dE][αMeY]LIEGGPSSGAPPPSGGGE-NH2 [Example 1174],,60.2 nM,0.707 nM,,,347 nM,0.00896 nM,0.454 nM,2.58 nM,,,,,,
